Measurements as given in article PMC9194936, “Preclinical Activity and Pharmacokinetic/Pharmacodynamic Relationship for a Series of Novel Benzenesulfonamide Perforin Inhibitors” (ACS Pharmacology & Translational Science, 2022).

Key:
[1] = Splenocyte cellularity and tolerability in the bone marrow transfer assay; assay type: in vivo
Procedure: For the determination of splenic cell counts, mouse spleens were harvested and the cells dispersed in media by gentle teasing and then centrifuged at 500g. Cell pellets were resuspended in media and total spleen cell counts were performed manually using a standard hemocytometer and light microscopy. […] Peripheral blood cell counts and spleen white blood cell counts were determined on a Beckman Coulter Ac.T diff hematology analyzer.

[2] = set-up: method as in PMID 28582670; AUC: concentration or dose not given beside the values; conditions: mouse plasma; cited from earlier work
perforin = biological target: T1, perforin (Mus musculus, UniProt P10820); assay: In vivo perforin inhibition (allogeneic bone marrow transfer assay); conditions: for % perforin inhibition, spleen: 24 h after transplant
T1 construct: endogenous in cells; host or cells: recipient cytotoxic lymphocytes (NK/CTL) of wild-type C57BL/6 mice, in vivo
T1 sequence (P10820 21-554): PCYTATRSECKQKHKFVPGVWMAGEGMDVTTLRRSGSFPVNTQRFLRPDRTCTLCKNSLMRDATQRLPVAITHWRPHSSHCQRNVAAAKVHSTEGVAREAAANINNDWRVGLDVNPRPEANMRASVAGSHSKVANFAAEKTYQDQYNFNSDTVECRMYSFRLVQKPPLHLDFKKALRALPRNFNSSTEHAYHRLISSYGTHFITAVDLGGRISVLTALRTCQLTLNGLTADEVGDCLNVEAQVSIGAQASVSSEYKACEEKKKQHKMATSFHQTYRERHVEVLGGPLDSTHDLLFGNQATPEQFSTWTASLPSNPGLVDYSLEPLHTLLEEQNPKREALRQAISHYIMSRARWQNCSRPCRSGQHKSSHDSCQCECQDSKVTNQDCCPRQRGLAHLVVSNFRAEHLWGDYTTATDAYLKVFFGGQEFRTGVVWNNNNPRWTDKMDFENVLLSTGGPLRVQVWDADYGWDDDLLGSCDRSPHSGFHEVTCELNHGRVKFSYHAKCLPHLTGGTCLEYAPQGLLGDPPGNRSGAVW
Procedure: This model was selected as a surrogate assay for graft rejection during allogeneic bone marrow/stem cell transplantation to enable rapid testing of perforin inhibition in vivo. Mice were transplanted with a mixture of equal numbers of allogeneic immunologically mismatched and syngeneic immunologically matched bone marrow. […] Allogeneic cell survival in spleen and peripheral blood was determined 24 h after transplant, using C57BL/6 perforin-deficient mice (100% perforin inhibition) and untreated C57BL/6 mice (0% perforin inhibition) as controls.
Compounds were tested for in vivo efficacy as described previously.[14] Age- (8–12 weeks) and sex-matched wild-type (H-2D^b, CD45.2^+) or perforin-deficient C57BL/6 mice (C57BL/6-Prf1^tm1Sdz/J; H-2D^b, CD45.2^+) received 12 ×10^6 bone marrow cells from both allogeneic BALB/c (H-2D^d) MHC-mismatched and syngeneic C57BL/6 (H-2D^b) MHC-matched mice (24 × 10^6 cells total). The wild-type recipient mice were treated with perforin inhibitor compounds by intraperitoneal injection in 20% hydroxypropyl-β-cyclodextrin vehicle (10 mL/kg), or with vehicle alone; perforin-deficient mice remained untreated. The mice were euthanized 24 h after bone marrow transfer for peripheral blood mononuclear cell (PBMC) and spleen collection.
Throughout the study, we utilized two strategies to distinguish between recipient, donor allogeneic, and donor syngeneic cells based on either fluorescent labeling prior to transplant or congenic marker expression (CD45.1/CD45.2). In the fluorescent dye approach, allogeneic wild-type BALB/c (H-2D^d, CD45.2^+) bone marrow was labeled with 1 μM carboxyfluorescein succinimidyl ester (CFSE) prior to mixing with syngeneic bone marrow from C57BL/6 congenic mice (CD45.1^+). Twenty-four hours after cell transfer, the harvested cells were stained with anti-CD45.1-phycoerythrin and anti-TER119-allophycocyanin monoclonal antibodies (BioLegend, San Diego, CA). TER119 was used for erythroid exclusion prior to the identification of allogeneic (CFSE^+) and syngeneic (CD45.1^+) donor cells. Using a second purely congenic marker approach, allogeneic BALB/c congenic (H-2D^d, CD45.1^+) bone marrow was mixed with syngeneic C57BL/6 double congenic (H-2D^b, CD45.1^+CD45.2^+) bone marrow prior to transfer. The harvested cells were stained with anti-CD45.1-phycoerythrin, anti-CD45.2-phycoerythrin-cyanine-7, and anti-TER119-allophycocyanin monoclonal antibodies (BioLegend, San Diego, CA). TER119 was used for erythroid exclusion, prior to identification of allogeneic donor (CD45.1^+), syngeneic donor (CD45.1^+ CD45.2^+), and recipient (CD45.2^+) cells. Dead cells were excluded using 7-aminoactinomycin D. Samples were acquired with an LSR Fortessa (BD Biosciences) and analyzed using FlowJo version 9 software (BD Biosciences). Prism version 9 (GraphPad) was used to calculate CTL indices as the percentage survival of syngeneic donor cells divided by the percentage survival of allogeneic donor cells. […] In vivo perforin inhibition animal experiments were approved by the Animal Ethics Committee of the QIMR Berghofer Medical Research Institute.

[3] = tested on: perforin-dependent cytotoxicity of KHYG-1 NK cells on K562 target cells; assay: KHYG-1 cytotoxicity assay (51Cr-labeled K562 target cells); assay type: cell-based; conditions: Homo sapiens; concentration inhibiting 90% of perforin-dependent cytotoxicity; K562 targets, effector/target 2:1, 4 h, RPMI 0.1% BSA; read-out: KHYG-1 IC90
Procedure: (Table 1). […] An IC90 was used rather than an IC50 as we anticipated that elevated suppression of perforin activity is likely required to preserve the transplanted bone marrow stem cells in vivo.
The inhibition of the cytotoxic activity of KHYG-1 NK cells on K562 target cells was determined as described previously.[14] Briefly, compounds were added to KHYG-1 cells at 6–7 concentrations ranging from 20 μM to 312.5 nM in 2-fold dilutions in RPMI medium (Thermo Fisher Scientific, Waltham, MA) supplemented with 0.1% bovine serum albumin (BSA; Sigma-Aldrich, St. Louis, MO) for 20 min. ^51Cr-labeled K562 leukemia target cells were added to KHYG-1 cells at an effector/target ratio of 2:1 and incubated at 37 °C for 4 h. ^51Cr release was assayed using a Harvesting Press (Skatron Instruments, Lier, Norway), and radioactivity was estimated on a Wallac Wizard 1470 Automatic γ counter (Turku, Finland). The IC90 values were calculated by fitting a four-parameter logistic sigmoidal dose–response curve to the data using Prism version 8 (GraphPad, San Diego, CA). Each IC90 value represents the mean of at least three independent experiments, where six to seven concentrations were tested in triplicate for each compound.

[4] = Plasma protein binding by equilibrium dialysis; assay type: in vitro ADME, mouse; conditions: CD1, pH 7.4; mouse plasma, 10 μM, equilibrium dialysis
Procedure: The plasma protein binding of the compounds was determined by equilibrium dialysis (12–14 kDa cutoff membrane). […] The dialysis unit was covered with an adhesive sealing film to prevent evaporation of the contents and placed in an incubator (Innova-42, New Brunswick Scientific) maintained at 37 °C with gentle mixing (80 rpm) for 6 h. Next, a 10 μL sample was aspirated from the plasma side and mixed with 90 μL of fresh PBS, whereas a 90 μL sample from the buffer side was removed and combined with 10 μL of drug-free plasma to ensure uniform matrix composition. Ice-cold acetonitrile (300 μL; Merck Millipore, Burlington, MA) containing internal standard (a BZS analogue of similar chemical structure) was added to each sample to precipitate protein and was vortexed for 2 min and centrifuged for 5 min at 13 000 rpm. The supernatant was diluted with 0.01% formic acid in ultrapure water (Milli-Q) (1:1) and quantitated by liquid chromatography–tandem mass spectrometry (LC-MS/MS). Each compound was tested in triplicate alongside control compounds known to have low (e.g., lidocaine) and high (e.g., amitriptyline) plasma protein binding. For media binding studies, the same assay was used, but RPMI with 0.1% BSA was used in place of CD1 mouse plasma.

recombinant perforin = tested on: recombinant perforin; set-up: method as in PMID 28582670, PMID 28110869; conditions: lytic activity of recombinant perforin against Jurkat T leukemia cells; cited from earlier work
[5] = all dose levels (100, 75 and 50% of MTD), qd x 4
[6] = 100 mg/kg qd x 4 (0, 24, 48 h prior to and 18 h after transfer)

Compound	reductions in splenocyte number [1, 5]	tolerability [1, 5]	AUC [2] [µM·h]	Cmax [2] [µM]	% perforin inhibition, spleen (perforin; 60 mg/kg qd x 4 (0, 24, 48 h prior to and 18 h after transfer)) [%]	% perforin inhibition, spleen (perforin; 90 mg/kg qd x 4 (0, 24, 48 h prior to and 18 h after transfer)) [%]	IC90 [3] [µM]	fraction unbound at 6 h, 10 μM [4]	IC50 (recombinant perforin) [nM]	% perforin inhibition, spleen (perforin; [6]) [%]	% perforin inhibition, spleen (perforin; 160 mg/kg qd x 4 (0, 24, 48 h prior to and 18 h after transfer)) [%]	reduction in splenocyte cellularity ([1]; dose at or near MTD, qd x 4, after allogeneic bone marrow transplantation)	% perforin inhibition, spleen (perforin; 120 mg/kg qd x 4 (0, 24, 48 h prior to and 18 h after transfer)) [%]	increase in allogeneic bone marrow survival in the spleen, % of that seen in perforin-deficient mice (perforin; dose at or near the MTD, 0, 24, 48 h prior to and 18 h after cell transfer) [%]
CN1Cc2cc(-c3ccc(-c4cncc(NS(=O)(=O)c5ccc(F)cc5F)c4)s3)ccc2C1=O [Compound 3, 2,4-difluoro-N-{5-[5-(2-methyl-1-oxo-2,3-dihydro-1H-isoindol-5-yl)-2-thienyl]-3-pyridinyl}benzenesulfonamide]	only minor reductions	well tolerated	220	9.8	7	10	16 ± 3.6							
CN1Cc2cc(-c3ccc(-c4cncc(NS(=O)(=O)c5ccc([N+](=O)[O-])cc5)c4)s3)ccc2C1=O [Compound 4, N-{5-[5-(2-methyl-1-oxo-2,3-dihydro-1H-isoindol-5-yl)-2-thienyl]-3-pyridinyl}-4-nitrobenzenesulfonamide]			383	64.4			19.9 ± 3.7	0.0031	3130	80.53				
CN1Cc2cc(-c3ccc(-c4cncc(NS(=O)(=O)c5c(F)cc(F)cc5F)c4)s3)ccc2C1=O [Compound 5, 2,4,6-trifluoro-N-{5-[5-(2-methyl-1-oxo-2,3-dihydro-1H-isoindol-5-yl)-2-thienyl]-3-pyridinyl}benzenesulfonamide]			1019	124			10.1 ± 1.8	0.0048	1760	14.88				
CN1Cc2cc(-c3ccc(-c4cncc(NS(=O)(=O)c5ccc(C#N)cc5)c4)s3)ccc2C1=O [Compound 6, 4-cyano-N-{5-[5-(2-methyl-1-oxo-2,3-dihydro-1H-isoindol-5-yl)-2-thienyl]-3-pyridinyl}benzenesulfonamide]			642	87.3			30.9 ± 10.5	0.0023	5170	22.70				
CN1Cc2cc(-c3ccc(-c4cnc(F)c(NS(=O)(=O)c5ccc(F)cc5F)c4)s3)ccc2C1=O [Compound 8, 2,4-difluoro-N-{2-fluoro-5-[5-(2-methyl-1-oxo-2,3-dihydro-1H-isoindol-5-yl)-2-thienyl]-3-pyridinyl}benzenesulfonamide]			2885	236			3.54 ± 0.65	0.0003	1990		39.14			
CN1Cc2cc(-c3ccc(-c4cnc(Cl)c(NS(=O)(=O)c5ccc(F)cc5F)c4)s3)ccc2C1=O [Compound 9, N-{2-chloro-5-[5-(2-methyl-1-oxo-2,3-dihydro-1H-isoindol-5-yl)-2-thienyl]-3-pyridinyl}-2,4-difluorobenzenesulfonamide]			2364	149			1.86 ± 0.44	0.0002	1030			much higher	61.28	61
